Results reported in patent US20250295790A1, “LECTIN-TARGETING CONJUGATES” (Helmholtz-Zentrum für Infektionsforschung GmbH, priority 2021, published 2025).

Tested on: P. aeruginosa PAO1 biofilms
Assay: P. aeruginosa biofilm staining in the flow cell
Format: cell-based, Pseudomonas aeruginosa PAO1
Settings: 500 nM in medium, 4 h accumulation, flow 3 mL/h
Experimental: Colonies of PAO1 wt labelled with the red fluorescent protein mCherry (pMP7605) were picked from a LB agar plate and transferred to 10 mL LB medium with Gentamicin 60 μg/ml to start an overnight culture. Incubation was done at 37° C. and 180 rpm overnight. A fresh culture was inoculated to an OD600nm of 0.02 (10 mL LB with Gentamicin 60 μg/mL) and incubated until the exponential growth phase was reached (OD600nm of 0.4 to 0.8). The bacterial suspension was diluted again to an OD600m of 0.1 and 300 μL were injected into a six-channel μ-slide (ibidi, Germany). The settling time was 30 min. The flow of 1:5 diluted LB medium with Gentamicin 60 μg/ml was 3 mL/h. The biofilms were grown in a heat system (ibidi, Germany) at 30° C. and for 48 h.
After 48 h of biofilm growth, aggregates were stained by supplementing the divalent LecA ligand 57 and Fluorescein disodium salt 58 as a control to the medium. The final concentration of the supplements in the medium was 500 nM and constantly accumulated within the biofilm for 4 h by a flow rate of 3 mL/h. Washing was performed for 30 min with LB 1:5 diluted with Gentamicin 60 μg/mL.
Analysis was done by using a fluorescence microscope Leica DMi8. […] The green fluorescein signal was detected by an excitation wavelength of 460 to 500 nm and an emission wavelength of 512 to 542 nm. Snapshots were normalized by using the Fiji software. […]

Question: How did the biofilm staining turn out when `CC1=CC(C)=[N+]2C1=Cc1ccc(CCC(=O)NCCCN=[N+]=[N-])n1[B-]2(F)F` [BDP FL azide] was run?
Answer: did not show any enrichment
